Assay results: publication PMC11056381, “Characterization and evaluation of cytotoxic and antimicrobial activities of cyclotides from Viola japonica” (Scientific Reports, 2024)
Residues, ends and D or L forms follow the SMILES beside them.

Assays:
Type in all cases: cell-based
[1] = system: Bacillus subtilis; assay: DAPI/PI staining, laser scanning confocal microscopy (membrane integrity); settings: B. subtilis 10^8 CFU/mL, 37 °C, 1-2 h, DAPI and PI staining
Source text: Many naturally occurring antimicrobial peptides (AMPs) are cationic. Cationic AMPs (CAMPs) exert bactericidal activity by mechanisms featuring cell membrane disruption. Cyclotides are likely to kill germ by disrupting their membranes. Laser scanning confocal microscopy can be used to study the ability of cyclotides to destroy bacterial membrane. 4′, 6-diaminyl-2-phenylindole (DAPI) is a blue fluorescent dye that can penetrate membranes and stain both living and dead strains, while propyl iodide (PI) stains only strains with damaged membranes, glowing red[46],[47]. In this study, the bracelet cyclotide family members viba 11 and vija 10 interacted with A. baumannii and B. subtilis in their logarithmic phase at 37 °C for 1–2 h. After the addition of DAPI and PI fluorescent dyes, the samples were incubated in a dark room at room temperature for 15 min for staining. The stained samples were then centrifuged to concentrate, resuspended, and applied to a slide for observation using a confocal laser scanning microscope (FLUOVIEW FV3000, Olympus). […] With increasing concentration, the blue and red fluorescence gradually overlapped. […] However, the magnification is not sufficient to detect further details of membrane disruption. Therefore, further exploration can be conducted using methods such as scanning electron microscopy (SEM) to study the antibacterial mechanism in depth.
Figure 5 Study on the antimicrobial mechanism of cyclotides. (A) Incubation of Acinetobacter baumannii with sterile water, 1 MIC and 4 MIC of viba 11. (B) Incubation of Bacillus subtilis with sterile water, 1 MIC and 4 MIC of vija 10. All samples were stained with DAPI and PI. The negative control group PI is not stained and the membrane is intact, while the membrane treated with cyclotides was stained and the membrane are destroyed. Scale bar: 20 μm. Magnification: 600×.
Take 50 μL of A. baumannii and B. subtilis (10^8 CFU/mL), and add 50 μL of sterile water, different concentrations of cyclotides viba 11 and vija 10 to achieve final concentrations of 1 MIC and 4 MIC respectively. Incubate at 37 °C for 1–2 h. Subsequently, add 4,6-diamino-2-phenylindole (DAPI) and propidium iodide (PI) dyes at 20 μg/mL each, and incubate in the dark for 15 min. Centrifuge at 5000 rpm for 3 min to concentrate, discard the majority of the supernatant, and resuspend the bacteria in the remaining small volume of liquid. Mix well and take 10 μL of the stained sample onto a glass slide, gently place a cover slip on top with forceps, avoiding the formation of bubbles during the pressing process. After sealing the cover slip, check with a laser confocal microscope, and the observation was conducted using an objective lens with the maximum magnification of 60 × . […]

[2] = system: T24 (human bladder cancer cells); assay: MTT cytotoxicity assay; settings: 48 h incubation, mean ± SD of at least three repeats
Procedure: (§1) Five types of cells, namely A549 (human non-small cell lung cancer cells), T24 (human bladder cancer cells), 4T1 (mouse breast cancer cells), 7402 (human hepatocellular carcinoma cells), and THLE-3 (human hepatocytes cells), are selected for evaluating the cytotoxicity of viba 11, cycloviolacin O2, and vija 10 using the MTT (3-(4,5-dimethylthiazol-2-yl)-2,5-diphenyltetrazolium bromide) reagent.
(§2) To determine cell toxicity using MTT assay, cells are seeded in a 96-well plate and cultured for 24 h. After that, different concentrations of cyclotides are added to the cells and incubated for 48 h. MTT is then added to react with the cells, and after 4 h, the reaction is terminated by discarding the supernatant and adding dimethyl sulfoxide for resuspension. The absorbance at 570 nm is measured after 10 min of shaking at room temperature. Each test was performed three times at least. The data were analyzed using GraphPad Prism 8. During this process, the drug concentrations were transformed into logarithmic form with a base of 10 and plotted on the x-axis. Cell viability (%) = [A (cyclotides) − A (blank)]/[A (control) − A (blank)] × 100, which was represented on the y-axis. Using this method, we determined the IC50 value for each experiment, with each experiment repeated at least three times and the mean value calculated. The error was represented by the standard deviation of the IC50 obtained from three repetitions.

[3] = system: A549 (human non-small cell lung cancer cells); assay: MTT cytotoxicity assay; settings: 48 h incubation, mean ± SD of at least three repeats
Procedure: as §1, §2

[4] = system: 4T1 (mouse breast cancer cells); assay: MTT cytotoxicity assay; settings: 4T1 cells, 48 h incubation, mean ± SD of at least three repeats
Procedure: as §1, §2

[5] = system: 7402 (human hepatocellular carcinoma cells); assay: MTT cytotoxicity assay; settings: 7402 cells, 48 h incubation, mean ± SD of at least three repeats
Procedure: as §1, §2

[6] = system: THLE-3 (human hepatocytes cells); assay: MTT cytotoxicity assay; settings: THLE-3 cells, 48 h incubation, mean ± SD of at least three repeats
Procedure: as §1, §2

CC[C@H](C)[C@@H]1NC(=O)[C@@H]2CSSC[C@@H]3NC(=O)[C@H](C(C)C)NC(=O)[C@H](CCCCN)NC(=O)[C@H](CO)NC(=O)[C@H](CO)NC(=O)[C@@H]4CSSC[C@H](NC(=O)[C@H](CO)NC(=O)[C@H](CCC(=O)O)NC(=O)CNC(=O)[C@H](CSSC[C@H](NC(=O)CNC(=O)[C@H](CC(C)C)NC(=O)[C@H](CC(C)C)NC(=O)[C@H](C)NC(=O)[C@H](CO)NC1=O)C(=O)N[C@@H](CO)C(=O)N4)NC(=O)[C@@H]1CCCN1C(=O)[C@H]([C@@H](C)CC)NC(=O)[C@H](CO)NC(=O)CNC(=O)[C@H](CC(N)=O)NC(=O)[C@H](CCCCN)NC(=O)[C@H](Cc1ccc(O)cc1)NC3=O)C(=O)N[C@@H](C(C)C)C(=O)N[C@@H](Cc1ccccc1)C(=O)N[C@@H]([C@@H](C)CC)C(=O)N1CCC[C@H]1C(=O)N2 [vija 10] (HELM PEPTIDE1{A.L.L.G.C.S.C.S.S.K.V.C.Y.K.N.G.S.I.P.C.G.E.S.C.V.F.I.P.C.I.S}$PEPTIDE1,PEPTIDE1,5:R3-20:R3|PEPTIDE1,PEPTIDE1,7:R3-24:R3|PEPTIDE1,PEPTIDE1,12:R3-29:R3|PEPTIDE1,PEPTIDE1,1:R1-31:R2$$$V2.0)
membrane integrity (PI red fluorescence) ([1]; 1 MIC): caused damage to the membrane integrity
membrane integrity (PI red fluorescence) ([1]; 4 MIC): majority of the cell membranes were ruptured
IC50 [2]: 3.28 ± 0.15 µM
IC50 [3]: 0.733 ± 0.2 µM
IC50 [4]: 0.244 ± 0.02 µM
IC50 [5]: 2.18 ± 0.06 µM
IC50 [6]: 2.09 ± 0.06 µM
